Key:
Assay type in all cases: biochemical
Conditions in all cases: 20 nM
[1] = biological target: T1, PDE4A1A (Homo sapiens, UniProt P27815); assay: PDE4 inhibitory activity assay (FAM-cAMP enzymatic reaction), PDE4A1A
T1 construct: purchased BPS 60040
In short: (§1)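 Read-out: fluorescence-based detection of FAM-cAMP turnover on a multilabel counter, with IC50 derived by fitting inhibition rates. The reaction ran 30 min at room temperature after a 15-min enzyme–compound preincubation, followed by stopping and 60 min further incubation.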

[2] = biological target: PDE4D2 (Homo sapiens, UniProt Q08499); assay: PDE4 inhibitory activity assay (FAM-cAMP enzymatic reaction), PDE4D2
In short: as §1

[3] = biological target: T2, PDE4B1 (Homo sapiens, UniProt Q07343); assay: PDE4 inhibitory activity assay (FAM-cAMP enzymatic reaction), PDE4B1
T2 construct: purchased BPS 60041
In short: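 Each isoform is incubated with test compound for 15 min at room temperature before FAM-cAMP substrate starts a 30-min reaction.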

Sequence of PDE4D2 (Q08499 303-809): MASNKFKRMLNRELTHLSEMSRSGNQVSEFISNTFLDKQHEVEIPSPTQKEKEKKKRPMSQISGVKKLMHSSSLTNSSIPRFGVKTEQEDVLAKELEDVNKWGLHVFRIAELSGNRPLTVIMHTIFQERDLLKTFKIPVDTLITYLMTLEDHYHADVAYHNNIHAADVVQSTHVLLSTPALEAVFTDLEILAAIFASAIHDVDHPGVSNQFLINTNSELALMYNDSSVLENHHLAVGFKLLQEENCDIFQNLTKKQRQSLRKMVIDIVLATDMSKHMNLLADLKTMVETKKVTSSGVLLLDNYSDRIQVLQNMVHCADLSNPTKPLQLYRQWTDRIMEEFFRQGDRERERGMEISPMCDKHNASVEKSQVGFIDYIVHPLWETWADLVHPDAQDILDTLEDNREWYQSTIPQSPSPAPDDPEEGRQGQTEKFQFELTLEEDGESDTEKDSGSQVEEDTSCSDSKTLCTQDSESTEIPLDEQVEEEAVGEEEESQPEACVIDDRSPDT
T2 sequence (Q07343 whole entry): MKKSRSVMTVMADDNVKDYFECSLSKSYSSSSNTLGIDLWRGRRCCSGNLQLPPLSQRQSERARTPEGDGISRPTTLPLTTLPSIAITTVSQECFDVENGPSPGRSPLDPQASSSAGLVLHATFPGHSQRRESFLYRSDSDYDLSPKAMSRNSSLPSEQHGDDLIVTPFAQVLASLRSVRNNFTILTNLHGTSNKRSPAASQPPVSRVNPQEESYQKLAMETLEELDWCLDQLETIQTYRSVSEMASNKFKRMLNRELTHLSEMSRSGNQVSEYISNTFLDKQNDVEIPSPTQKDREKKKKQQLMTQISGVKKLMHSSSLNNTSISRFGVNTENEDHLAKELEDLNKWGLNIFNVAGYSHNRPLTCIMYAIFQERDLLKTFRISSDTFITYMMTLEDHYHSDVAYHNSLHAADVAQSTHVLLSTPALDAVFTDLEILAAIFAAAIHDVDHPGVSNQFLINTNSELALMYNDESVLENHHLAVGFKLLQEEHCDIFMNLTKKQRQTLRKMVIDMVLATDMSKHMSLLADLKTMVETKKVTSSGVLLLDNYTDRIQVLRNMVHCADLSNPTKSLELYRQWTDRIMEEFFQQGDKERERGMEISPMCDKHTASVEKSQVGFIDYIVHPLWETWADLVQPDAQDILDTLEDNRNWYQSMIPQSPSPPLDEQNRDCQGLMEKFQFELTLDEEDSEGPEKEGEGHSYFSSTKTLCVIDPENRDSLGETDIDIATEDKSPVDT
T1 sequence (P27815 1-647 isoform P27815-4): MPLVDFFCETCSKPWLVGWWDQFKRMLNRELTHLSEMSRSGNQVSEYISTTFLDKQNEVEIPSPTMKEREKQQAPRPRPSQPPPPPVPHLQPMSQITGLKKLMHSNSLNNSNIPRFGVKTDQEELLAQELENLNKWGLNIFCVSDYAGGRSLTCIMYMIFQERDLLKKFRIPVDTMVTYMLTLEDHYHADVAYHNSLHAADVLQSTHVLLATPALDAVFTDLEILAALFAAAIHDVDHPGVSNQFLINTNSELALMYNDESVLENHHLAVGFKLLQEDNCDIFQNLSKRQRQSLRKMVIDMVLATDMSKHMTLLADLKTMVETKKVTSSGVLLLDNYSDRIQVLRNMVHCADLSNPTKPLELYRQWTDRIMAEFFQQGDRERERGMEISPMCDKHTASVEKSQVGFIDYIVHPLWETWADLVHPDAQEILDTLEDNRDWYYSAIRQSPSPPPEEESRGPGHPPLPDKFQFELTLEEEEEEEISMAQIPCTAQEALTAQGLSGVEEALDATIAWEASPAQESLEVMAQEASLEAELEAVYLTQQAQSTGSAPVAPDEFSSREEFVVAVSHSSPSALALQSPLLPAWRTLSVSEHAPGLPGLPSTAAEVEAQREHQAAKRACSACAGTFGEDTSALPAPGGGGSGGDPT

| PDE4 A1 inhibitory effect at 20 nM [1] | PDE4 D2 inhibitory effect at 20 nM [2] | PDE4 B1 inhibitory effect at 20 nM [3] | Compound |
| --- | --- | --- | --- |
| + | + | + | CCOc1nc([C@@H](CS(C)(=O)=O)n2c(=O)[nH]c3cc(-c4ccccc4Cl)ccc32)ccc1OC [Ex. 142, (S)-5-(2-chlorophenyl)-1-(1-(6-ethoxy-5-methoxypyridin-2-yl)-2-(methylsulfonyl)ethyl)-1H-benzo[d]imidazol-2(3H)-one] |
| + | + | + | CCOc1nc([C@@H](CS(C)(=O)=O)n2c(=O)[nH]c3cc(-c4ccccc4OC)ccc32)ccc1OC [Ex. 143, (S)-1-(1-(6-ethoxy-5-methoxypyridin-2-yl)-2-(methylsulfonyl)ethyl)-5-(2-methoxyphenyl)-1H-benzo[d]imidazol-2(3H)-one] |
| + | + | + | CCOc1nc([C@@H](CS(C)(=O)=O)n2c(=O)n(C)c3cc(-c4ccccc4OC)ccc32)ccc1OC [Ex. 144, (S)-1-(1-(6-ethoxy-5-methoxypyridin-2-yl)-2-(methylsulfonyl)ethyl)-5-(2-methoxyphenyl)-3-methyl-1H-benzo[d]imidazol-2(3H)-one] |
| − | − | − | CCOc1nc([C@H](CS(C)(=O)=O)n2c(=O)[nH]c3cc(-c4ccccc4OC)ccc32)ccc1OC [Ex. 145, (R)-1-(1-(6-ethoxy-5-methoxypyridin-2-yl)-2-(methylsulfonyl)ethyl)-5-(2-methoxyphenyl)-1H-benzo[d]imidazol-2(3H)-one] |
| + | + | + | CCOc1nc([C@@H](CS(C)(=O)=O)n2c(=O)[nH]c3cc(-c4ccccc4C(F)(F)F)ccc32)ccc1OC [Ex. 146, (S)-1-(1-(6-ethoxy-5-methoxypyridin-2-yl)-2-(methylsulfonyl)ethyl)-5-(2-(trifluoromethyl)phenyl)-1H-benzo[d]imidazol-2(3H)-one] |
| + | + | + | CCOc1nc([C@@H](CS(C)(=O)=O)n2c(=O)n(C)c3cc(-c4ccccc4C(F)(F)F)ccc32)ccc1OC [Ex. 147, (S)-1-(1-(6-ethoxy-5-methoxypyridin-2-yl)-2-(methylsulfonyl)ethyl)-5-(2-(trifluoromethyl)phenyl)-3-methyl-1H-benzo[d]imidazol-2(3H)-one] |
| + | + | + | CCOc1nc([C@@H](CS(C)(=O)=O)n2c(=O)[nH]c3cc(-c4ccccc4C4CC4)ccc32)ccc1OC [Ex. 148, (S)-5-(2-cyclopropylphenyl)-1-(1-(6-ethoxy-5-methoxypyridin-2-yl)-2-(methylsulfonyl)ethyl)-1H-benzo[d]imidazol-2(3H)-one] |
| + | + | + | CCOc1nc([C@@H](CS(C)(=O)=O)n2c(=O)[nH]c3c(C)c(-c4ccccc4C(C)C)ccc32)ccc1OC [Ex. 149, (S)-1-(1-(6-ethoxy-5-methoxypyridin-2-yl)-2-(methylsulfonyl)ethyl)-5-(2-isopropylphenyl)-4-methyl-1H-benzo[d]imidazol-2(3H)-one] |
| + | + | + | CCOc1nc([C@@H](CS(C)(=O)=O)n2c(=O)[nH]c3cc(-c4ccccc4CC)ccc32)ccc1OC [Ex. 150, (S)-1-(1-(6-ethoxy-5-methoxypyridin-2-yl)-2-(methylsulfonyl)ethyl)-5-(2-ethylphenyl)-1H-benzo[d]imidazol-2(3H)-one] |

The next lines start with the compound.

| Compound | PDE4 A1 inhibitory effect at 20 nM [1] | PDE4 D2 inhibitory effect at 20 nM [2] | PDE4 B1 inhibitory effect at 20 nM [3] |
| --- | --- | --- | --- |
| CCOc1nc([C@@H](CS(C)(=O)=O)n2c(=O)[nH]c3cc(-c4ccc(F)cc4)ccc32)ccc1OC [Ex. 135, (S)-1-(1-(6-ethoxy-5-methoxypyridin-2-yl)-2-(methylsulfonyl)ethyl)-5-(4-fluorophenyl)-1H-benzo[d]imidazol-2(3H)-one] | + | + | + |
| CCOc1nc([C@H](CS(C)(=O)=O)n2c(=O)[nH]c3cc(-c4ccc(F)cc4)ccc32)ccc1OC [Ex. 136, (R)-1-(1-(6-ethoxy-5-methoxypyridin-2-yl)-2-(methylsulfonyl)ethyl)-5-(4-fluorophenyl)-1H-benzo[d]imidazol-2(3H)-one] | + | + | + |
| CCOc1nc([C@@H](CS(C)(=O)=O)n2c(=O)n(C)c3cc(-c4ccc(F)cc4)ccc32)ccc1OC [Ex. 137, (S)-1-(1-(6-ethoxy-5-methoxypyridin-2-yl)-2-(methylsulfonyl)ethyl)-3-methyl-5-(4-fluorophenyl)-1H-benzo[d]imidazol-2(3H) one] | + | + | + |
| CCOc1nc([C@H](CS(C)(=O)=O)n2c(=O)n(C)c3cc(-c4ccc(F)cc4)ccc32)ccc1OC [Ex. 138, (R)-1-(1-(6-ethoxy-5-methoxypyridin-2-yl)-2-(methylsulfonyl)ethyl)-3-methyl-5-(4-fluorophenyl)-1H-benzo[d]imidazol-2(3H)-one] | + | + | + |
| CCOc1nc([C@@H](CS(C)(=O)=O)n2c(=O)[nH]c3cc(-c4ccccc4C)ccc32)ccc1OC [Ex. 139, (S)-1-(1-(6-ethoxy-5-methoxypyridin-2-yl)-2-(methylsulfonyl)ethyl)-5-(o-methylphenyl)-1H-benzo[d]imidazol-2(3H)-one] | + | + | + |
| CCOc1nc([C@@H](CS(C)(=O)=O)n2c(=O)n(C)c3cc(-c4ccccc4C)ccc32)ccc1OC [Ex. 140, (S)-1-(1-(6-ethoxy-5-methoxypyridin-2-yl)-2-(methylsulfonyl)ethyl)-5-(o-methylphenyl)-3-methyl-1H-benzo[d]imidazol-2(3H)-one] | + | + | + |
| CCOc1nc([C@H](CS(C)(=O)=O)n2c(=O)[nH]c3cc(-c4ccccc4C)ccc32)ccc1OC [Ex. 141, (R)-1-(1-(6-ethoxy-5-methoxypyridin-2-yl)-2-(methylsulfonyl)ethyl)-5-(o-methylphenyl)-1H-benzo[d]imidazol-2(3H)-one] | + | + | + |

From patent US20230141101A1, “PDE4 INHIBITOR COMPOUND AND MEDICAL USE THEREOF” (Suzhou Longbotai Pharmaceuticals Co., Ltd., priority 2020, published 2023)
